Measurements published in US20130183239A1, “ISOTOPIC CARBON CHOLINE ANALOGS” (IMPERIAL COLLEGE, priority 2010, published 2013).
“Also recorded” adds a separate entry of the source.

Experiments:
HCT116 tumors = assay: PD0325901 treatment of HCT116 tumor-bearing mice with [18F]D4-FCH-PET; assay type: in vivo
Procedure: (§1) Size-matched HCT116 tumor bearing mice were randomized to receive daily treatment by oral gavage of vehicle (0.5% hydroxypropyl methylcellulose+0.2% Tween 80) or 25 mg/kg (0.005 mL/g mouse) of the mitogenic extracellular kinase inhibitor, PD0325901, prepared in vehicle. [^18F]D4-FCH-PET scanning was done after 10 daily treatments with the last dose administered 1 h before scanning. […] The results are illustrated in FIGS. 18 and 19.
These studies were performed in a reproducible tumor model system in which treatment outcomes had been previously characterized, i.e., the human colon carcinoma xenograft HCT116 treated with PD0325901 daily for 10 days (Leyton, J., et al., “Noninvasive imaging of cell proliferation following mitogenic extracellular kinase inhibition by PD0325901”, Mol Cancer Ther 2008; 7(9):3112-21). […] All imaging variables decreased after 10 days of drug treatment (P=0.05, FIG. 18). […] To understand the biomarker changes, the intrinsic cellular effect of PD0325901 on D4-FCH-phosphocholine formation was examined by treating exponentially growing HCT116 cells in culture with PD0325901 for 24 h and measuring the 60-min uptake of [^18F]D4-FCH in vitro.

HCT116 cells = assay: [18F]D4-FCH-phosphocholine formation in HCT116 cells treated with PD0325901; assay type: cell-based, human; conditions: PD0325901 1 μM for 24 h, 60-min uptake
Procedure: HCT116 cells were grown in T150 flasks in triplicate until they were 70% confluent and then treated with vehicle (1% DMSO in growth medium) or 1 μmol/L PD0325901 in vehicle for 24 h. Cells were pulsed for 1 h with 1.1 MBq of either […]D4—FCH or [^18F]FCH. The cells were washed three times in ice-cold phosphate buffered saline (PBS), scraped into 5 mL PBS, and centrifuged at 500×g for 3 min and then resuspended in 2 mL ice-cold methanol for HPLC analysis as described above for tissue samples. […] Briefly, HCT116 cells were grown in 100 mm dishes in triplicate and incubated with 5.0 MBq [^18F]FCH for 60 min at 37° C. to form the putative [^18F]FCH-phosphate. The cells were washed with 5 mL ice-cold PBS twice and then scraped and centrifuged at 750×g (4° C., 3 min) in 5 mL PBS. Cells were homogenized in 1 mL of 5 mmol/L Tris-HCl (pH 7.4) containing 50% (v/v) glycerol, 0.5 mmol/L MgCl2, and 0.5 mmol/L ZnCl2 and incubated with 10 units bacterial (type III) alkaline phosphatase (Sigma) at 37° C. in a shaking water bath for 30 min to dephosphorylate the [^18F]FCH-phosphate. The reaction was terminated by adding ice-cold methanol. Samples were processed as per plasma above and analyzed by radio-HPLC. Control experiments were done without alkaline phosphatase. […]

choline kinase A (CHKA) = assay: Western blot of choline kinase A expression in HCT116 tumors after PD0325901; assay type: in vivo, human; conditions: HCT116 tumors at day 10, western blot
Procedure: HCT116 tumors from mice that were injected with PD0325901 (25 mg/kg daily for 10 days, orally) or vehicle were analyzed for CHKA expression by western blotting. β-actin was used as the loading control. (b) Summary densitometer measurements for CHKA expression expressed as a ratio to β-actin. The results are the mean ratios±SE; n=3, * P=0.05.
as §1
To understand further the mechanisms regulating [^18F]D4-FCH uptake with drug treatment, changes in CHKA expression in PD0325901 and vehicle-treated tumors excised after PET scanning were assessed.

CHKA = CHKA expression in exponentially growing cells treated with PD0325901; assay type: cell-based
[1] = Potassium permanganate oxidation study; assay type: physicochemical; conditions: 1 hour post-treatment with potassium permanganate, room temperature, radio-HPLC
Source text: Reagents and Conditions: i) KMnO4, Na2CO3, H2O, rt.

[2] = mouse, in vivo
Procedure: Metabolite analysis of tissues including liver, kidney and tumor by HPLC was also accomplished. […] Choline and its metabolites lack any UV chromophore to permit presentation of chromatograms of the cold unlabelled compound simultaneously with the radioactivity chromatograms.
Liver, kidney, and tumor samples were obtained at 30 min. All samples were snap-frozen in liquid nitrogen. For analysis, samples were thawed and kept at 4° C. immediately before use. To ˜0.2 mL plasma was added ice-cold methanol (1.5 mL). The mixture was then centrifuged (3 min, 15,493×g, 4jC). The supernatant was evaporated to dryness using a rotary evaporator (Heidoloph Instruments) at a bath temperature of 40° C. The residue was suspended in mobile phase (1.1 mL), clarified (0.2 Am filter), and analyzed by HPLC. Liver, kidney, and tumor samples were homogenized in ice-cold methanol (1.5 mL) using an IKA Ultra-Turrax T-25 homogenizer and subsequently treated as per plasma samples (above). All samples were analyzed by radio-HPLC on an Agilent 1100 series HPLC system (Agilent Technologies) equipped with a γ-RAM Model 3 γ-detector (IN/US Systems) and Laura 3 software (Lablogic). The stationary phase comprised a Waters μBondapak C18 reverse-phase column (300×7.8 mm) (Waters, Milford, Mass., USA). Samples were analyzed using a mobile phase comprising solvent A (acetonitrile/water/ethanol/acetic acid/1.0 mol/L ammonium acetate/0.1 mol/L sodium phosphate; 800/127/68/2/3/10) and solvent B (acetonitrile/water/ethanol/acetic acid/1.0 mol/L ammonium acetate/0.1 mol/L sodiumphosphate; 400/400/68/44/88/10) with a gradient of 0% B for 6 min, then 0→100% B in 10 min, 100% B for 0.5 min, 100→0% B in 1.5 min then 0% B for 2 min, delivered at a flow rate of 3 mL/min.

[3] = mouse, in vivo, 60 min
Procedure: (§2) Dynamic [^18F]FCH and [^18F]D4-FCH imaging scans were carried out on a dedicated small animal PET scanner, quad-HIDAC (Oxford Positron Systems). The features of this instrument have been described previously (Barthel, H., et al., Cancer Res 2003; 63(13):3791-8). For scanning the tail veins, vehicle- or drug-treated mice were cannulated after induction of anesthesia (isofluorane/O2/N2O). The animals were placed within a thermostatically controlled jig (calibrated to provide a rectal temperature of ˜37° C.) and positioned prone in the scanner. [^18F]FCH or [^18F]D4-FCH (2.96-3.7 MBq) was injected via the tail vein cannula and scanning commenced. Dynamic scans were acquired in list mode format over a 60 min period as reported previously (Leyton, J., et al., Cancer Research 2006; 66(15):7621-9). The acquired data were sorted into 0.5 mm sinogram bins and 19 time frames (0.5×0.5×0.5 mm voxels; 4×15, 4×60, and 11×300 s) for image reconstruction, which was done by filtered back-projection using a two-dimensional Hamming filter (cutoff 0.6). The image data sets were visualized using the Analyze software (version 6.0; Biomedical Imaging Resource, Mayo Clinic). Cumulative images of 30 to 60 min dynamic data were used for visualization of radiotracer uptake and to draw regions of interest. Regions of interest were defined manually on five adjacent tumor regions (each 0.5 mm thickness). Dynamic data from these slices were averaged for each tissue (liver, kidney, muscle, urine, and tumor) and at each of the 19 time points to obtain time versus radioactivity curves. Corresponding whole body time versus radioactivity curves representing injected radioactivity were obtained by adding together radioactivity in all 200×160×160 reconstructed voxels. Tumor radioactivity was normalized to whole-body radioactivity and expressed as percent injected dose per voxel (% ID/vox). The normalized uptake of radiotracer at 60 min (% ID/vox60) was used for subsequent comparisons. The average of the normalized maximum voxel intensity across five slices of tumor % IDvox60max was also use for comparison to account for tumor heterogeneity and existence of necrotic regions in tumor. The area under the curve was calculated as the integral of % ID/vox from 0 to 60 min.

[4] = tested on: human melanoma SKMEL-28 xenografts; conditions: mouse, in vivo, 60 min
Procedure: as §2

choline oxidase = conditions: 60 min, 1.76 MBq/mL, pH 7
[5] = C3H-Hej, mouse, in vivo, iv, 15 min

Row | parent compound still present [1] | unknown metabolite (possibly the aldehyde intermediate) in liver [2] | kidney radioactivity as phosphocholine ([2]; 30 min) | kidney radioactivity in the form of betaine ([2]; 30 min) | unknown metabolite in kidney ([2]; 30 min) | form of radioactivity in tumors ([2]; iv, 30 min) | Bladder (urine) % ID/vox60 [3] | Kidney % ID/vox60 [3] | Liver radioactivity % ID/vox60 [3] | Tumor % ID/vox60 [4] | parent radiotracer present (choline oxidase) | conversion to betaine metabolite in plasma [5] | Structure (SMILES) | tumor [18F]D4-FCH uptake / retention (HCT116 tumors; HCT116 tumors, 10 days of 25 mg/kg daily vs vehicle, 25 mg/kg) | reduction in tumor size (HCT116 tumors; day 10 compared to the pretreatment group, 25 mg/kg daily, oral) | [18F]D4-FCH-phosphocholine formation (HCT116 cells) | CHKA protein expression in vivo (choline kinase A (CHKA)) | CHKA expression in vitro (CHKA)
1 |  |  |  |  |  |  |  |  |  |  |  |  | O=C(NOC[C@H](O)CO)c1ccc(F)c(F)c1Nc1ccc(I)cc1F [PD0325901] | significant reduction in tumor [^18F]D4-FCH uptake; also recorded: marked reduction in radiotracer retention | 12.2% | significantly inhibited | significant reduction | reduction of CHKA expression
2 | less than 40% | not found | 31.8±9.8% | 53.5±5.3% | 3.3±0.6% | significant levels of [^18F]FCH-betaine | 6.70±0.71 % ID/vox | 15.97±4.65 % ID/vox | 18.75±4.28 % ID/vox | 5.50±0.49 % ID/vox | 11±8% | ~80% | C[N+](C)(C[18F])CCO [[^18F]FCH, [^18F]Fluoromethylcholine, reference compound] |  |  |  |  | 
